Values joined by “and” are separate entries in the source; they are usually repeats but may differ in a detail not shown here. Equal values may be shown once.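 Tested at 5 concentrations; 48 h exposure; 96-well plates; endpoints linearly interpolated, else capped at highest concentration. At the GI50, growth is halved. The concentration for full growth arrest is given as TGI.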
Assays:
Experiment in all cases: growth of human tumour cells (NCI), 48 h
SK-MEL-2 melanoma = system: SK-MEL-2 melanoma
CAKI-1 renal = system: CAKI-1 renal
U251 CNS = system: U251 CNS
SNB-19 CNS = system: SNB-19 CNS
IGROV1 ovarian = system: IGROV1 ovarian
K-562 leukemia = system: K-562 leukemia
RXF 393 renal = system: RXF 393 renal
SR leukemia = system: SR leukemia
MDA-MB-231 breast = system: MDA-MB-231 breast
PC-3 prostate = system: PC-3 prostate

| SMILES | TGI (SK-MEL-2 melanoma) | TGI (CAKI-1 renal) | TGI (U251 CNS) | TGI (SNB-19 CNS) | TGI (IGROV1 ovarian) | TGI (K-562 leukemia) | TGI (RXF 393 renal) | TGI (SR leukemia) | GI50 (SK-MEL-2 melanoma) | GI50 (RXF 393 renal) | GI50 (CAKI-1 renal) | GI50 (U251 CNS) | GI50 (MDA-MB-231 breast) | TGI (MDA-MB-231 breast) | GI50 (PC-3 prostate) | TGI (PC-3 prostate) | GI50 (SNB-19 CNS) | GI50 (IGROV1 ovarian) | GI50 (K-562 leukemia) | GI50 (SR leukemia) |
| --- | --- | --- | --- | --- | --- | --- | --- | --- | --- | --- | --- | --- | --- | --- | --- | --- | --- | --- | --- | --- |
| COc1ccc(/C=C2\C(=O)N(NC(C)=O)c3ccccc32)cc1 | > 100 µM | > 100 µM | > 100 µM | > 100 µM | > 100 µM | > 100 µM | – | – | – | – | – | – | – | – | – | – | – | – | – | – |
| COc1ccc2c(C(=O)O)cc3ccccc3c2c1OC | 94.9 µM | – | > 100 µM | > 100 µM | – | 80.6 µM | 28.6 µM | > 100 µM | – | – | – | – | – | – | – | – | – | – | – | – |
| O=[N+]([O-])c1ccc(-c2ccc(C3=Nn4c(CNc5ccccc5Cl)nnc4SC3)o2)cc1 | > 100 µM | > 100 µM | > 100 µM | > 100 µM | > 100 µM | > 100 µM | – | > 100 µM | – | – | – | – | – | – | – | – | – | – | – | – |
| CN1CCN(c2c(F)cc(NC3=C(Cl)C(=O)c4ncccc4C3=O)cc2F)CC1 | 28 µM | 2.77 µM | 31.7 µM | 31.1 µM | 11.5 µM | > 100 µM | 3.31 µM | – | 13.7 µM | 1.67 µM | 1.45 µM | 15 µM | 3.47 µM | 12.3 µM | 5.87 µM | 21.1 µM | 17.1 µM | 2.92 µM | 0.494 µM | – |
| O=C(COc1ccc(/C=C2\Oc3ccccc3C2=O)cc1)Nc1nc2ccccc2s1 | > 68.6 µM | – | > 100 µM | > 100 µM | – | > 100 µM | – | 8.57 µM | 14.6 µM | – | 1.79 µM | 6.35 µM | 4.7 µM | 60.3 µM | 2.27 µM | > 70.6 µM | 41.4 µM | – | 16.7 µM | 2.38 µM |
| O=C(NCCc1ccccc1)C1C(=O)C(=O)N(CCc2ccccc2)C1=O (stereo not drawn) | > 100 µM | > 100 µM | > 100 µM | > 100 µM | > 100 µM | > 100 µM | – | > 100 µM | – | – | – | – | – | – | – | – | – | – | – | – |
| c1ccc(C(c2ccccc2)c2ccccn2)cc1 | > 100 µM | > 100 µM | > 100 µM | > 100 µM | > 100 µM | > 100 µM | – | – | – | – | – | – | – | – | – | – | – | – | – | – |
| COc1cc(/C=C/c2cc(/C=C/c3ccc(O)c(OC)c3)n(C(=O)c3ccccc3Br)n2)ccc1O | 5.92 µM | > 100 µM | > 100 µM | > 100 µM | > 100 µM | > 100 µM | – | – | 2.37 µM | – | 2.2 µM | 2.62 µM | 3.59 µM | > 100 µM | 3.02 µM | 66.9 µM | 2.7 µM | 4.11 µM | 1.45 µM | – |
| CC[C@H](C)[C@H](NC(=O)[C@H]1CCCCN1C)C(=O)N(C)[C@H](C[C@@H](OC(C)=O)c1nc(C(=O)NC23CC(C(=O)OC)(C2)C3)cs1)C(C)C | 0.0347 µM | – | > 32.5 µM | > 32.5 µM | > 32.5 µM | > 32.5 µM | – | > 32.5 µM | 0.00102 µM and 0.00325 µM | – | 0.00485 µM | 0.00083 µM and 0.00325 µM | 0.00163 µM and 0.00363 µM | > 32.5 µM | 0.00129 µM and 0.00325 µM | > 32.5 µM | 0.00105 µM and 0.00325 µM | 0.00132 µM and 0.00325 µM | – | – |
| CCOC(=O)C1=C(NC)OCC1=O | > 100 µM | > 100 µM | > 100 µM | > 100 µM | > 100 µM | > 100 µM | > 100 µM | – | – | – | – | – | – | – | – | – | – | – | – | – |

— PubChem BioAssay (NCI)
